Measurements taken from patent US6903130B1, “Pyrrolidineacetamide derivative alone or in combination for treatment of cns disorders” (UCB S.A., priority 1999, dated 2005).
Marks after values point to notes of the source that are not given here.

Experiments:
epilepsy = conditions: in vivo; cited from earlier work
[1] = test system: diabetic rats (streptozocin-induced diabetic neuropathy); experiment: Randall and Selitto test, mechanical hyperalgesia in streptozotocin diabetic rats; assay type: in vivo, rat
Text: In order to study the activity of levetiracetam with respect to chronic or neuropathic pain, the Applicant carried out a series of experiments based on the Randall test “A method for measurement of analgesic activity on inflamed tissue; Arch. Int. pharmacodyn., 1957, CXI, No4. P 409-419”. By virtue of this protocol, it was possible to determine the ability of levetiracetam to correct hyperalgesia secondary to induction of a neuropathic problem of metabolic origin in a rodent.
The diabetic neuropathy thereby induced allowed the correction of the hyperalgesia caused by the use of levetiracetam to be measured.
The animals used for these experiments were male Sprague-Dawley rats (Charles River, France), weighing 250-280 grams (g), which had undergone induction of diabetes one week after receipt. Male Sprague-Dawley rats (200-220 g) received one interperitoneal injection of streptozocin (75 mg/kg, i.p.) (Zanosar, Upjohn, France) dissolved in distilled water. Hyperglycaemia was confirmed one week after induction by determining the quantity of blood glucose (caudal puncture) using a Dextrostix reactive strip (Ames) read using a calorimeter (Ames Division, Miles Laboratoires, France). Animals with more than 14 millimoles (mM) were considered to be diabetic. The pain thresholds were determined 3 weeks after induction of diabetes.
This model was used in accordance with the description in COURTEIX et al., “Streptozocin-induced diabetic rats. Behavioural evidence for a model of chronic pain” Pain (1993), vol. 53, p81-88. The study was performed using the following compounds: • […]: (Laboratories UCB), dissolved in distilled water. • CARBAMAZEPINE: (Sigma), dissolved in hydroxy propel methylcellulose.
As has already been mentioned above, the test explained below was performed to stimulate a reaction in the animal with a mechanical nociceptive stimulus to a hind paw. An increasing pressure was applied using an analgesia meter (Ugo Basile, type 7200), until a cry was emitted which was considered to be the pain threshold, expressed in grams.
After determining the base thresholds, the animals received the study treatments (vehicle, levetiracetam, 17, 54, 95.2 and 120 mg/kg, carbamazepine, 10 and 30 mg/kg) administered intraperitoneally (i.p.) using the equal block method to avoid any chronobiological influence. The effects of different treatments were thus determined during the same time period. The reaction thresholds were measured 15, 30, 45, 60, 90, 120 and 180 minutes (min) after administration. All of the experiments were performed blind with 8 different animals per treatment.
The results are expressed as means±standard error of mean (S.E.M.).
The dose which could overcome 50% of the hyperalgesia induced by diabetes was calculated as the “anti-hyperalgesic dose effective 50”.
Statistical comparison was carried out by means of a two-way analysis of variance followed by Fischer's PLSD multiple comparison test to analyze the temporal effect.

sound-sensitive mice = experiment: Rotarod test in sound-sensitive mice; conditions: combined treatment with 5.5 mg/kg levetiracetam
[2] = Plasma and brain levels after oral dosing in sound-sensitive mice; conditions: alone or in combination with levetiracetam
Procedure: Male genetically sound-sensitive mice (17-30 g; N=10), derived from a DBA strain originally selected by Dr Lehmann of the Laboratory of Acoustic Physiology (Paris) and bred in the UCB Pharma Sector husbandry unit since 1978, were submitted to the induction of audiogenic seizures. Levetiracetam (5.4 mg/kg) and sodium valproate (166.2 mg/kg) were administered orally, alone or in combination, 60 minutes before the induction of audiogenic seizures. For testing audiogenic seizure, the mice were placed in the cages, one mouse per cage, in the sound-attenuated chamber. After a period of habituation of 30 seconds, the acoustic stimulus (90 dB, 10-20 kHz) was delivered for 30 seconds via the loud speakers. During this interval, the mice were observed and the presence of the 3 phases of the seizure activity, namely wild running, clonic and tonic convulsions, was recorded.
In all animals, blood samples were collected immediately after the seizure test (I h after dosing) by cardiac puncture under light carbon dioxide anesthesia, into heparinised microtubes. […] Levetiracetam was measured in plasma and brain samples by validated gas chromatography assay with mass detection. With sodium valproate, fluorescence polarization immunoassays were used.
The mean value plus standard deviation was calculated for plasma and brain concentrations of valproate and levetiracetam, and for the brain/plasma ratio. […]

CC[C@H](C(N)=O)N1CCCC1=O [(R)-(−)-α-ethyl-2-oxo-1-pyrrolidine-acetamide]
activity in the treatment of epilepsy (in words) (epilepsy): completely devoid of activity

NC(=O)N1c2ccccc2C=Cc2ccccc21 [Carbamazepine, reference compound]
vocalization threshold ([1]; carbamazepine 10 mg/kg i.p. group, before diabetes (baseline), mean (SEM)): 300.9 (12.31) g | vocalization threshold ([1]; carbamazepine 10 mg/kg i.p., 15 min after injection): 217.5 g | vocalization threshold ([1]; carbamazepine 10 mg/kg i.p., 30 min after injection): 333.8 (14.66)* g | vocalization threshold ([1]; carbamazepine 10 mg/kg i.p., 45 min after injection): 273.8 g | vocalization threshold ([1]; carbamazepine 10 mg/kg i.p., 60 min after injection): 206.3 (10.51)* g | vocalization threshold ([1]; carbamazepine 10 mg/kg i.p., 90 min after injection): 187.5 (8.02) g | vocalization threshold ([1]; carbamazepine 10 mg/kg i.p., 120 min after injection): 174.4 (3.95) g | vocalization threshold ([1]; carbamazepine 10 mg/kg i.p., 180 min after injection): 174.4 (3.95) g | vocalization threshold ([1]; carbamazepine 10 mg/kg i.p., after diabetes, 0 min (base threshold)): 170.6 (5.26) g | vocalization threshold ([1]; carbamazepine 30 mg/kg i.p. group, before diabetes (baseline), mean (SEM)): 280.3 (9.92) g | vocalization threshold ([1]; carbamazepine 30 mg/kg i.p., 15 min after injection): 450.0 g | vocalization threshold ([1]; carbamazepine 30 mg/kg i.p., 30 min after injection): 425.6 (39.98)* g | vocalization threshold ([1]; carbamazepine 30 mg/kg i.p., 45 min after injection): 311.3 g | vocalization threshold ([1]; carbamazepine 30 mg/kg i.p., 60 min after injection): 230.6 (24.86)* g | vocalization threshold ([1]; carbamazepine 30 mg/kg i.p., 90 min after injection): 196.9 g | vocalization threshold ([1]; carbamazepine 30 mg/kg i.p., 120 min after injection): 174.4 (7.99) g | vocalization threshold ([1]; carbamazepine 30 mg/kg i.p., 180 min after injection): 170.6 (6.30) g | vocalization threshold ([1]; carbamazepine 30 mg/kg i.p., after diabetes, 0 min (base threshold)): 152.8 (8.01) g | spontaneous motor activity (not quantified) ([1]; carbamazepine 30 mg/kg i.p., delayed effect, 30 min after injection): reduction in spontaneous motor activity | Effect on diabetic hyperalgesia (in words) ([1]; i.p., diabetic rats): complete reversal of diabetic hyperalgesia for the 2 doses used

CNC1=Nc2ccc(Cl)cc2C(c2ccccc2)=[N+]([O-])C1 [chlordiazepoxide]
impairment of rotarod performance under combined treatment (in words) (sound-sensitive mice): not affected

O=C1CN=C(c2ccccc2Cl)c2cc([N+](=O)[O-])ccc2N1 [clonazepam]
impairment of rotarod performance under combined treatment (in words) (sound-sensitive mice): not affected

CCC1(c2ccccc2)C(=O)NC(=O)NC1=O [phenobarbital, reference compound]
impairment of rotarod performance under combined treatment (in words) (sound-sensitive mice): not affected | plasma concentrations and brain/plasma ratio alone vs in combination with levetiracetam (in words) [2]: unchanged
